Measurements published in patent US12036312B2, “Non-aqueous topical compositions comprising a halogenated salicylanilide” (priority 2016, dated 2024).
Converted amounts (≈) assume the structure as drawn. Read-outs that look alike come from different tables or passages of the source.

Assays:
S. aureus = test: MIC assay according to CLSI criteria, Example 2, S. aureus strains; assay type: cell-based, Staphylococcus aureus; settings: for MIC: Staphylococcus aureus, read-out: MIC
Method in brief: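 Broth microdilution per CLSI in cation-adjusted Mueller Hinton broth, ~5×10^5 exponential-phase cells per well, aerobic at 37° C for 18 hours; OD600 read at end.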

P. aeruginosa = settings: Imperi et al. 2013, cited from earlier work
[1] = test system: methicillin-resistant Staphylococcus aureus (MRSA 01, MRSA 15, MRSA 16); test: Resistance mutation frequency evaluation, Example 3; assay type: cell-based; settings: at MIC×1; all tested strains (MRSA 01, MRSA 15, MRSA 16); below the detection limit

SMILES: O=C(Nc1ccc([N+](=O)[O-])cc1Cl)c1cc(Cl)ccc1O [Niclosamide, niclosamide]
- MIC distribution: percentage of Staphylococcus aureus strains (S. aureus; MIC 0.5 μg/ml, 205 strains): 27% (55/205)
- MIC50 (S. aureus; Staphylococcus aureus strains): 0.25 µg/mL (≈ 0.764 µM)
- MIC90 (S. aureus; Staphylococcus aureus strains): 0.5 µg/mL (≈ 1.53 µM)
- MIC (S. aureus; MRSA, strain MRSA 01): 0.25 µg/mL (≈ 0.764 µM)
- MIC (S. aureus; MRSA, strain MRSA 02): 0.25 µg/mL (≈ 0.764 µM)
- MIC (S. aureus; MRSA, strain MRSA 03): 0.25 µg/mL (≈ 0.764 µM)
- MIC (S. aureus; MRSA, strain MRSA 04): 0.25 µg/mL (≈ 0.764 µM)
- MIC (S. aureus; MRSA, strain MRSA 05): 0.25 µg/mL (≈ 0.764 µM)
- MIC (S. aureus; MRSA, strain MRSA 06): 0.25 µg/mL (≈ 0.764 µM)
- MIC (S. aureus; MRSA, strain MRSA 08): 0.25 µg/mL (≈ 0.764 µM)
- MIC (S. aureus; MRSA, strain MRSA 10): 0.25 µg/mL (≈ 0.764 µM)
- MIC (S. aureus; MRSA, strain MRSA 11): 0.25 µg/mL (≈ 0.764 µM)
- MIC (S. aureus; MRSA, strain MRSA 12): 0.5 µg/mL (≈ 1.53 µM)
- MIC (S. aureus; MRSA, strain MRSA 13): 0.25 µg/mL (≈ 0.764 µM)
- MIC (S. aureus; MRSA, strain MRSA 14): 0.25 µg/mL (≈ 0.764 µM)
- MIC (S. aureus; MRSA, strain MRSA 15): 0.25 µg/mL (≈ 0.764 µM)
- MIC (S. aureus; MRSA, strain MRSA 16): 0.25 µg/mL (≈ 0.764 µM)
- MIC (S. aureus; MRSA, strain MRSA 17): 0.25 µg/mL (≈ 0.764 µM)
- MIC (S. aureus; MRSA, strain MRSA 18): 0.25 µg/mL (≈ 0.764 µM)
- MIC (S. aureus; MRSA, strain MRSA 19): 0.25 µg/mL (≈ 0.764 µM)
- MIC (S. aureus; MRSA, strain MRSA 20): 0.25 µg/mL (≈ 0.764 µM)
- MIC (S. aureus; MRSA, strain MRSA 21): 0.25 µg/mL (≈ 0.764 µM)
- MIC (S. aureus; MRSA, strain MRSA 22): 0.25 µg/mL (≈ 0.764 µM)
- MIC (S. aureus; MRSA, strain MRSA 23): 0.25 µg/mL (≈ 0.764 µM)
- MIC (S. aureus; MRSA, strain MRSA 24): 0.25 µg/mL (≈ 0.764 µM)
- MIC (S. aureus; MRSA, strain MRSA 25): 0.25 µg/mL (≈ 0.764 µM)
- MIC (S. aureus; MRSA, strain MRSA 26): 0.5 µg/mL (≈ 1.53 µM)
- MIC (S. aureus; MRSA, strain MRSA 27): 0.5 µg/mL (≈ 1.53 µM)
- MIC (S. aureus; MRSA, strain MRSA 28): 0.25 µg/mL (≈ 0.764 µM)
- MIC (S. aureus; MRSA, strain MRSA 29): 0.5 µg/mL (≈ 1.53 µM)
- MIC (S. aureus; MRSA, strain MRSA 30): 0.25 µg/mL (≈ 0.764 µM)
- MIC (S. aureus; MRSA, strain MRSA 31): 0.25 µg/mL (≈ 0.764 µM)
- MIC (S. aureus; MRSA, strain MRSA 32): 0.25 µg/mL (≈ 0.764 µM)
- MIC (S. aureus; MRSA, strain MRSA 33): 0.25 µg/mL (≈ 0.764 µM)
- MIC (S. aureus; MRSA, strain MRSA 34): 0.25 µg/mL (≈ 0.764 µM)
- MIC (S. aureus; MRSA, strain MRSA 35): 0.25 µg/mL (≈ 0.764 µM)
- MIC (S. aureus; MRSA, strain MRSA 70): 0.125 µg/mL (≈ 0.382 µM)
- MIC (S. aureus; MRSA, strain MRSA 73): 0.5 µg/mL (≈ 1.53 µM)
- MIC (S. aureus; MRSA, strain MRSA 75): 0.5 µg/mL (≈ 1.53 µM)
- MIC (S. aureus; MRSA, strain MRSA 78): 0.5 µg/mL (≈ 1.53 µM)
- MIC (S. aureus; MRSA, strain MRSA 80): 0.5 µg/mL (≈ 1.53 µM)
- MIC (S. aureus; MRSA, strain MRSA 81): 0.5 µg/mL (≈ 1.53 µM)
- MIC (S. aureus; MRSA, strain MRSA 83): 0.5 µg/mL (≈ 1.53 µM)
- MIC (S. aureus; MRSA, strain MRSA 88): 0.25 µg/mL (≈ 0.764 µM)
- MIC (S. aureus; MRSA, strain MRSA 90): 0.5 µg/mL (≈ 1.53 µM)
- MIC (S. aureus; MRSA, strain MRSA 91): 0.25 µg/mL (≈ 0.764 µM)
- MIC (S. aureus; MRSA, strain MRSA 92): 0.25 µg/mL (≈ 0.764 µM)
- MIC (S. aureus; MRSA, strain MRSA 93): 0.25 µg/mL (≈ 0.764 µM)
- MIC (S. aureus; MRSA, strain MRSA 94): 0.25 µg/mL (≈ 0.764 µM)
- MIC (S. aureus; MRSA, strain MRSA 95): 0.25 µg/mL (≈ 0.764 µM)
- MIC (S. aureus; MRSA, strain MRSA 96): 0.25 µg/mL (≈ 0.764 µM)
- MIC (S. aureus; MRSA, strain MRSA 97): 0.25 µg/mL (≈ 0.764 µM)
- MIC (S. aureus; MRSA, strain MRSA 98): 0.5 µg/mL (≈ 1.53 µM)
- MIC (S. aureus; MRSA, strain MRSA 99): 0.25 µg/mL (≈ 0.764 µM)
- MIC (S. aureus; MRSA, strain MRSA 100): 0.25 µg/mL (≈ 0.764 µM)
- MIC (S. aureus; MRSA, strain MRSA 101): 0.5 µg/mL (≈ 1.53 µM)
- MIC (S. aureus; MRSA, strain MRSA 102): 0.25 µg/mL (≈ 0.764 µM)
- MIC (S. aureus; MRSA, strain MRSA 103): 0.25 µg/mL (≈ 0.764 µM)
- MIC (S. aureus; MRSA, strain MRSA 104): 0.5 µg/mL (≈ 1.53 µM)
- MIC (S. aureus; MRSA, strain MRSA 105): 0.25 µg/mL (≈ 0.764 µM)
- MIC (S. aureus; MRSA, strain MRSA 106): 0.25 µg/mL (≈ 0.764 µM)
- MIC (S. aureus; MRSA, strain MRSA 107): 0.25 µg/mL (≈ 0.764 µM)
- MIC (S. aureus; MRSA, strain MRSA 108): 0.25 µg/mL (≈ 0.764 µM)
- MIC (S. aureus; MRSA, strain MRSA 109): 0.25 µg/mL (≈ 0.764 µM)
- MIC (S. aureus; MRSA, strain MRSA 110): 0.25 µg/mL (≈ 0.764 µM)
- MIC (S. aureus; MRSA, strain MRSA 111): 0.5 µg/mL (≈ 1.53 µM)
- MIC (S. aureus; MRSA, strain MRSA 112): 0.25 µg/mL (≈ 0.764 µM)
- MIC (S. aureus; MRSA, strain MRSA 113): 0.25 µg/mL (≈ 0.764 µM)
- MIC (S. aureus; MSSA, strain MSSA 01): 0.5 µg/mL (≈ 1.53 µM)
- MIC (S. aureus; MSSA, strain MSSA 02): 0.25 µg/mL (≈ 0.764 µM)
- MIC (S. aureus; NEWMAN, strain Newman): 0.25 µg/mL (≈ 0.764 µM)
- effect on growth of P. aeruginosa (P. aeruginosa): does not affect the growth of P. aeruginosa
- concentration at which some inhibition was detected (quorum sensing) (P. aeruginosa; P. aeruginosa): 1 µM
- concentration required for optimal activity (quorum sensing) (P. aeruginosa; P. aeruginosa): 20 µM
- mutational frequency [1]: < 4.10^−9
